Source: patent US20080214537A1, “BRIDGED PHENANTHRIDINES” (CARA THERAPEUTICS, INC., priority 2007, published 2008)

How the values were obtained:
[1] = target: human CB2 receptor (hCB2) (Homo sapiens, UniProt P34972); assay: cAMP assay (LANCE TR-FRET) in CHO-K1 cells expressing hCB2; assay type: cell-based; conditions: for Emax: CHO-K1, read-out: hCB2 % Max Range; for EC50: CHO-K1 cells stably expressing hCB2, intracellular cAMP, NKH-477 prestimulated, average of at least three replicates
Procedure: (§1) The ability of compounds to act as agonists or inverse agonists at human CB2 and CB1 receptors (hCB2, hCB1, respectively) was determined by measuring changes in intracellular cAMP levels. Chinese Hamster Ovary (CHO-K1) cell lines stably expressing hCB2 (Genebank: X74328) or hCB1 (Genebank: X54937) were purchased from Euroscreen (Gosselies, Belgium).
(§2) Cell lines were grown in suspension in EX-CELL 302 CHO Serum-free medium (Sigma, catalog #14324C) supplemented with 1% Fetal Bovine Serum, glutamine and with or without non-essential amino-acids under 0.4 mg/mL G418 selection.
(§3) Receptor mediated responses were determined by measuring changes in intracellular cAMP using LANCE cAMP detection kit (catalog #AD0264, PerkinElmer, Wellesley, Mass.) based on time-resolved fluorescence resonance energy transfer (TR-FRET). Changes in cAMP were determined in cells pre-incubated with IBMX (isobutyl methylxanthine) and prestimulated with NKH-477 (a water soluble forskolin derivative, catalog #1603, Tocris, Ellisville, Mo.) to increase basal cAMP levels as detailed below.
(§4) On the day of the experiment, cells were spun at low speed for 5 min at room temperature. The supernatant was removed and cells were resuspended in stimulation buffer (Hanks Buffered Salt Solution/5 mM HEPES, containing 0.5 mM IBMX (catalog #17018, Sigma) and 0.02% BSA (PerkinElmer, catalog #CR84-100)). Cell clumps were removed by filtering through cell strainer 40 μm (BD Falcon, Discovery Labware, Bedford, Mass.) and diluted to 2×10^5 cells/mL. Antibody supplied with the LANCE cAMP immunoassay kit was then added according to the manufacturer's instructions. An aliquot of cells was taken for un-induced controls. To the remaining cells was added NKH-477 (a water soluble forskolin derivative, Tocris catalog #1603) to a final concentration of 2-8 μM. Cells were then incubated for either 25 or 30 min at room temperature prior to adding to Proxiplates containing test compounds (final DMSO concentration was less than 0.5%) with a Multidrop bulk dispenser, followed by a sixty minute incubation at room temperature. The response was stopped by addition of the detection mix supplied with the LANCE kit.
(§5) The reagents were allowed to equilibrate for three hours prior to reading on an Envision multi-mode detector (PerkinElmer). TR-FRET was measured using a 330-380 nm excitation filter, 615 and 665 nm emission filters, dichroic mirror 380 nm and Z=1 mm.
(§6) Cyclic AMP concentrations in each well were back-calculated from a cAMP standard curve run concurrently during each assay. Each plate contained 16 wells of forskolin stimulated cells and 16 wells of forskolin plus CP55,940-treated. CP55,940-treated cells were treated with CP55,940 (Tocris catalog #0949) at 1 μM and the maximal response was used as the full range (100%) standard. WIN55,212 (Tocris catalog #1038) was used as an internal standard. Concentrations of cAMP were expressed as a percent of the difference of these two groups of wells. Concentration-response data including EC50 (the concentration of compound producing 50% of the maximal response) and intrinsic activity (the percent maximal activation compared to full activation by CP55,940) were determined using a four-parameter non-linear regression algorithm (Xlfit equation 251, IDBS). Assays were performed with at least three replicates per compound and averaged results for the several compounds of the invention are shown in Table I.

[2] = target: human CB1 receptor (hCB1) (Homo sapiens, UniProt P21554); assay: cAMP assay (LANCE TR-FRET) in CHO-K1 cells expressing hCB1; assay type: cell-based; conditions: activity on hCB1 represents inverse agonism; for Emax: CHO-K1, percent of range defined by CP55,940 (1 μM = 100%), read-out: hCB1 % Max Range; for EC50: CHO-K1 cells stably expressing hCB1, intracellular cAMP, NKH-477 prestimulated
Sequence of human CB1 receptor (hCB1) (P21554 whole entry): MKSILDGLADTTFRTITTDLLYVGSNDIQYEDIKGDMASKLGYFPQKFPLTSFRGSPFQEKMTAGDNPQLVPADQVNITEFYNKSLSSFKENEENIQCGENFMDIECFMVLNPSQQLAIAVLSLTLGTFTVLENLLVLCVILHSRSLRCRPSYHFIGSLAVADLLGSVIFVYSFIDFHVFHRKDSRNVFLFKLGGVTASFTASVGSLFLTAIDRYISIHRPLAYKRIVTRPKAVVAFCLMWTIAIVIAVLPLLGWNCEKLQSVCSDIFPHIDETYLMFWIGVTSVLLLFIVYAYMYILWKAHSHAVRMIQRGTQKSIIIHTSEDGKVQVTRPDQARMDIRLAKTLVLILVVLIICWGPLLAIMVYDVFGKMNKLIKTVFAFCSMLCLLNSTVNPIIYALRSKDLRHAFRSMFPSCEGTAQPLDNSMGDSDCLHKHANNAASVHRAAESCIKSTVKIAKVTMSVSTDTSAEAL
Procedure: as §1, §2, §3, §4, §5
as §6, with “IDBS).” for “IDBS). Assays were performed with at least three replicates per compound and averaged results for the several compounds of the invention are shown in Table I.”

[3] = intrinsic activity: percent maximal activation compared to full activation by CP55,940 (1 μM = 100%)

Sequence of human CB2 receptor (hCB2) (P34972 whole entry): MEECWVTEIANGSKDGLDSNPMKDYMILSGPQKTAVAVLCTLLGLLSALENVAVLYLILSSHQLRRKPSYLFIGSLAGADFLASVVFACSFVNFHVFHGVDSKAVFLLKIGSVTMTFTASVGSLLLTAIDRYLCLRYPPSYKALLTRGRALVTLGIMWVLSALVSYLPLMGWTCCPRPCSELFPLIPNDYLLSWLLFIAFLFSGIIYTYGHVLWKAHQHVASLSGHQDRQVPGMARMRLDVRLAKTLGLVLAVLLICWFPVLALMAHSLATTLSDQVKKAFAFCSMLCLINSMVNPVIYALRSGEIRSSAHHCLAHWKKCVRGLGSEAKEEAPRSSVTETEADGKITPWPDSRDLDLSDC

With CCCNC(=S)Nc1ccc2c(c1)C1C3CCC(C3)C1C(c1ccc(C)cc1)N2 (centres unmarked) [(8), Bridged 1-propyl-3-(6-p-tolyl-5,6,6a,7,8,9,10,10a-octahydrophenanthridin-2-yl)thiourea] the Emax [1, 3] was less than 40%, the EC50 [1] was greater than 10 µM and the Emax [2] was 63%. It also gave an EC50 [2] of 2.04 µM.
Work on CC(C)S(=O)(=O)Nc1ccc2c(c1)C1C3CCC(C3)C1C(c1ccccc1)N2 (centres unmarked) [(51), Bridged N-(6-phenyl-5,6,6a,7,8,9,10,10a-octahydrophenanthridin-2-yl)propane-2-sulfonamide] yielded an Emax [1, 3] of 96.8%, an EC50 [1] of 0.00162 µM and an Emax [2] of 100%. It also gave an EC50 [2] of 2.21 µM.
Work on Cc1nc(-c2ccc3c(c2)C2C4CCC(C4)C2C(c2ccnn2C)N3)cs1 (centres unmarked) [(44), Bridged 2-methyl-4-(6-(1-methyl-1H-pyrazol-5-yl)-5,6,6a,7,8,9,10,1 0a-octahydrophenanthridin-2-yl)thiazole] yielded an Emax [1, 3] of 70.2%, an EC50 [1] of 0.187 µM and an Emax [2] of 111%. The EC50 [2] was 2.93 µM.
Cn1nccc1C1Nc2ccc(S(=O)(=O)N3CCCC3)cc2C2C3CCC(C3)C12 (centres unmarked) [(42), Bridged 6-(1-methyl-1H-pyrazol-5-yl)-2-(pyrrolidin-1-ylsulfonyl)-5,6,6a,7,8,9,10,10a-octahydrophenanthridine] was tested, and the Emax [1, 3] was 100%, the EC50 [1] was 0.00091 µM and the Emax [2] was less than 40%. The EC50 [2] was greater than 10 µM.
Molecule CCCCc1nnc(-c2ccc3c(c2)C2C4CCC(C4)C2C(c2ccccc2)N3)o1 (centres unmarked) [(45), Bridged 2-butyl-5-(6-phenyl-5,6,6a,7,8,9,10,10a-octahydrophenanthridin-2-yl)-1,3,4-oxadiazole] has an Emax [1, 3] of 96.8%, an EC50 [1] of 0.0704 µM and an Emax [2] of less than 40%. The EC50 [2] was greater than 10 µM.
CC(=O)Nc1ccc(C2Nc3ccc(S(=O)(=O)N(C)C)cc3C3C4CCC(C4)C23)cc1 (centres unmarked) [(32), Bridged N-(4-(2-(N,N-dimethylsulfamoyl)-5,6,6a,7,8,9,10,10a-octahydrophenanthridin-6-yl)phenyl)acetamide] showed an Emax [1, 3] of 81.3%, an EC50 [1] of 0.225 µM and an Emax [2] of less than 40%. The EC50 [2] was greater than 10 µM.
O=C(NCC1CC1)c1ccc2c(c1)C1C3CCC(C3)C1C(c1ccccc1)N2 (centres unmarked) [Compound (2d), Methylene bridged N-(cyclopropylmethyl)-6-phenyl-5,6,6a,7,8,9,10,10a-octahydrophenanthridine-2-carboxamide] showed an Emax [1, 3] of 84%, an EC50 [1] of 0.019 µM and an Emax [2] of less than 40%. For the same molecule, the EC50 [2] was greater than 10 µM.
Molecule CCCNC(=O)Nc1ccc2c(c1)C1C3CCC(C3)C1C(c1ccc(C)cc1)N2 (centres unmarked) [(7), Bridged 1-propyl-3-(6-p-tolyl-5,6,6a,7,8,9,10,10a-octahydrophenanthridin-2-yl)urea] has an Emax [1, 3] of less than 40%, an EC50 [1] greater than 10 µM and an Emax [2] of less than 40%. It also gave an EC50 [2] greater than 10 µM.
Cc1ccc(C2Nc3ccc(NC(=O)CC4CCCO4)cc3C3C4CCC(C4)C23)cc1 (centres unmarked) [(16), Bridged 2-(tetrahydrofuran-2-yl)-N-(6-p-tolyl-5,6,6a,7,8,9,10,10a-octahydrophenanthridin-2-yl)acetamide] showed an Emax [1, 3] of 52%, an EC50 [1] of 0.102 µM and an Emax [2] of less than 40%. It also gave an EC50 [2] greater than 10 µM.
For CCC1Nc2ccc(NC(=O)C3CC3)cc2C2C3CCC(C3)C12 (centres unmarked) [(21), Bridged N-(6-ethyl-5,6,6a,7,8,9,10,10a-octahydrophenanthridin-2-yl)cyclopropanecarboxamide], the Emax [1, 3] was 84%, the EC50 [1] was 1.2 µM and the Emax [2] was less than 40%. The EC50 [2] was greater than 10 µM.
O=S(=O)(c1ccc2c(c1)C1C3CCC(C3)C1C(c1cncnc1)N2)N1CCOCC1 (centres unmarked) [(35), Bridged 4-(6-(pyrimidin-5-yl)-5,6,6a,7,8,9,10,10a-octahydrophenanthridin-2-ylsulfonyl)morpholine] was tested, and the Emax [1, 3] was 66.6%, the EC50 [1] was 1.3 µM and the Emax [2] was less than 40%. It also gave an EC50 [2] greater than 10 µM.
CS(=O)(=O)N(c1ccc2c(c1)C1C3CCC(C3)C1C(c1ccccc1)N2)S(C)(=O)=O (centres unmarked) [(52), Bridged N-(methylsulfonyl)-N-(6-phenyl-5,6,6a,7,8,9,10,10a-octahydrophenanthridin-2-yl)methanesulfonamide] was tested, and the Emax [1, 3] was 102%, the EC50 [1] was 0.00063 µM and the Emax [2] was less than 40%. The EC50 [2] was greater than 10 µM.
For COCCC(=O)Nc1ccc2c(c1)C1C3CCC(C3)C1C(c1ccc(C)cc1)N2 (centres unmarked) [(15), Bridged 3-methoxy-N-(6-p-tolyl-5,6,6a,7,8,9,10,10a-octahydrophenanthridin-2-yl)propanamide], the Emax [1, 3] was less than 40%, the EC50 [1] was greater than 10 µM and the Emax [2] was 56%. For the same molecule, the EC50 [2] was 2.36 µM.
Cn1nccc1C1Nc2ccc(S(N)(=O)=O)cc2C2C3CCC(C3)C12 (centres unmarked) [(40), Bridged 6-(1-methyl-1H-pyrazol-5-yl)-5,6,6a,7,8,9,10,10a-octahydrophenanthridine-2-sulfonamide] was tested, and the Emax [1, 3] was 82.7%, the EC50 [1] was 2 µM and the Emax [2] was less than 40%. It also gave an EC50 [2] greater than 10 µM.
For CC(=O)Nc1ccc2c(c1)C1C3CCC(C3)C1C(c1ccc(C)cc1)N2 (single isomer, unassigned) [(25b), Bridged N-(6-p-tolyl-5,6,6a,7,8,9,10,10a-octahydrophenanthridin-2-yl)acetamide], the EC50 [1] was greater than 10 µM, the “hCB2 % Max Range” value [1, 3] was “N/A (N/A: Response <40% assay range)” and the EC50 [2] was 3.54 µM. For the same molecule, the “hCB1 % Max Range” value ([2]; percent of range defined by CP55,940 (1 μM = 100%)) was 107%.
CC(=O)NS(=O)(=O)c1ccc2c(c1)C1C3CCC(C3)C1C(c1ccnn1C)N2 (centres unmarked) [(47), Bridged N-(6-(1-methyl-1H-pyrazol-5-yl)-5,6,6a,7,8,9,10,10a-octahydrophenanthridin-2-ylsulfonyl)acetamide] gave an Emax [1, 3] of 82.5%, an EC50 [1] of 1.49 µM and an Emax [2] of less than 40%. It also gave an EC50 [2] greater than 10 µM.
In the case of O=S(=O)(c1ccc2c(c1)C1C3CCC(C3)C1C(c1ccccc1)N2)N1CCCC1 (centres unmarked) [(41), Bridged 6-phenyl-2-(pyrrolidin-1-ylsulfonyl)-5,6,6a,7,8,9,10,10a-octahydrophenanthridine], the Emax [1, 3] is reported as 104%, the EC50 [1] is reported as 0.00081 µM and the Emax [2] is reported as less than 40%. For the same molecule, the EC50 [2] was greater than 10 µM.
Cc1ccc(C2Nc3ccc(NC(=O)C4CC4)cc3C3C4CCC(C4)C23)cc1 (centres unmarked) [(22), Bridged N-(6-p-tolyl-5,6,6a,7,8,9,10,10a-octahydrophenanthridin-2-yl)cyclopropanecarboxamide] gave an Emax [1, 3] of 53%, an EC50 [1] of 0.014 µM and an Emax [2] of 115%. For the same molecule, the EC50 [2] was 1.81 µM.
With O=C(Nc1ccc2c(c1)C1C3CCC(C3)C1C(c1ccccc1)N2)C1CC1 (centres unmarked) [(19), Bridged N-(6-phenyl-5,6,6a,7,8,9,10,10a-octahydrophenanthridin-2-yl)cyclopropanecarboxamide] the Emax [1, 3] was 49%, the EC50 [1] was 0.187 µM and the Emax [2] was 53%. It also gave an EC50 [2] of 1.7 µM.
Work on CC(C)S(=O)(=O)N1c2ccc(S(=O)(=O)N(C)C)cc2C2C3CCC(C3)C2C1c1ccccc1 (centres unmarked) [(50), Bridged 5-(isopropylsulfonyl)-N,N-dimethyl-6-phenyl-5,6,6a,7,8,9,10,10a-octahydrophenanthridine-2-sulfonamide] yielded an Emax [1, 3] of 81.2%, an EC50 [1] of 1.5 µM and an Emax [2] of less than 40%. The EC50 [2] was greater than 10 µM.
